Assay results taken from patent publication US20250326790A1, “PEPTIDES BINDING TO HYPOXIA INDUCIBLE FACTORS AND THEIR USE” (UNIVERSITY OF SOUTHAMPTON, priority 2021, published 2025).
*1 amine or outer side, *2 acyl side, *3 side chain or, on linkers, in order; H or OH if unused. Where a SMILES comes first, the peptide text is derived from it. [ ]: non-standard residue; d: D form. Phe(4-I) = N[C@@H](Cc1ccc(I)cc1)C(=O)O; hLeu = CC(C)CC[C@H](N)C(=O)O; CO = O=C([*:1])[*:2]

Target: recombinantly expressed PAS-B domain of HIF-1α (Homo sapiens (Human), UniProt Q16665)
Experiment: MST binding affinity to PAS-B domain of HIF-1α
Settings: microscale thermophoresis, 50 nM labelled protein, 10% DMSO
Description: MST experiments were performed on a Monolith NT.115 system (Nanotemper Technologies GmbH), in assay buffer containing 50 nM labelled protein, 10% DMSO and 0.05% TWEEN-20. MST measurements were performed using 50% LED and 50% MST power.

Chain of recombinantly expressed PAS-B domain of HIF-1α (Q16665 228-298): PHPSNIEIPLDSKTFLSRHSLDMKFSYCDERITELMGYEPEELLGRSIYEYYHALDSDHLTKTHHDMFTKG

Compound	Kd [µM]
CC(C)CC[C@H](NS(=O)(=O)c1cc(Cl)c(Cl)s1)C(=O)N[C@@H](Cc1ccc(I)cc1)C(=O)N[C@@H](CC(F)(F)F)C(=O)NCCCCl [Example 66]	> 125
CNC(=O)N[C@@H](CCC(C)C)C(=O)N[C@@H](Cc1ccc(I)cc1)C(=O)N[C@@H](CS)C(N)=O [Example 5] ({NHMe-CO}-[hLeu]-[Phe(4-I)]-Cys-NH2)	> 50
CC(C)CC[C@H](NS(=O)(=O)c1cc(Cl)c(Cl)s1)C(=O)N[C@@H](Cc1ccc(I)cc1)C(=O)N[C@@H](CS(N)(=O)=O)C(=O)NCCCCl [Example 68]	> 500
CC(C)CC[C@H](NS(=O)(=O)c1cc(Cl)c(Cl)s1)C(=O)N(C)[C@@H](Cc1ccc(I)cc1)C(=O)N[C@@H](CN1CCOCC1)C(=O)NCCCCl [Example 67]	> 500
Cc1c(S(=O)(=O)N[C@@H](CCC(C)C)C(=O)N[C@@H](Cc2ccc(I)cc2)C(=O)N[C@@H](CS)C(N)=O)sc2ccc(Cl)cc12 [Example 28]	8
CNC[C@H](NC(=O)[C@H](Cc1ccc(I)cc1)NC(=O)[C@H](CCC(C)C)NS(=O)(=O)c1cc(Cl)c(Cl)s1)C(=O)NCCCCl [Example 72]	> 500
CC(C)CC[C@H](NS(=O)(=O)c1cc(Cl)c(Cl)s1)C(=O)N[C@@H](Cc1ccc(I)cc1)C(=O)N[C@@H](CC(N)=O)C(=O)NCCCCl [Example 58]	> 500
CC(C)CC[C@H](NS(=O)(=O)c1ccc(Cl)s1)C(=O)N[C@@H](Cc1ccc(I)cc1)C(=O)N[C@@H](CS)C(=O)NCCCCCN [Example 40]	100
CC(C)CC[C@H](NS(=O)(=O)c1cc(Cl)c(Cl)s1)C(=O)N(C)[C@@H](Cc1ccc(I)cc1)C(=O)N[C@@H](CN)C(=O)NCCCCl [Example 59]	> 500
